Assays:
[1] = tested on: acute hymphocytic leukemia (ALL); experiment: Example Sixteen: patient with acute lymphocytic leukemia in blast crisis; format: in vivo, human; conditions: for Hemoglobin (Hgb): pre-infusion 10.5; for Blasts: pre-infusion 45%; for Platelets: pre-infusion 31,000; for White Blood Cells (WBC): pre-infusion 38,000
Source text: A person presented with acute hymphocytic leukemia (ALL).
They were started on zwitterionic piperazine therapy (HEPES).
Her baseline laboratory data was obtained following a blood transfusion before starting the HEPES;

[2] = Example Fourteen: patient with ventricular irritability; format: in vivo, human; conditions: 3000 mg orally for seven days; baseline 4-6 per minute
Procedure: A person with ventricular irritability, 4-6 premature ventricular contractions per minute (PVCs), was not controlled with Prancetyl, Quinidine, or beta blockade. They were taking no medicines and was started on 3000 mg zwitterionic piperazine orally for seven days. At the end of seven days, the patient had only occasional PVC (1 every 10 minutes).

[3] = 13.0 mg/kg I.V. increased to 80 mg/kg I.V.

O=S(=O)(O)CCN1CCN(CCO)CC1 [HEPES, N-2 Hydroxyethylpiperazine-N'-2 Ethane Sulfonic Acid]
blast crisis [1, 3]: cessation of the blasts crisis
platelet destruction [1, 3]: Platelet destruction has ceased
Hemoglobin (Hgb) ([1]; Day 3 of HEPES treatment): 8.5 g/dL
Blasts ([1]; Day 3 of HEPES treatment): 45%
Platelets ([1]; Day 3 of HEPES treatment): 14,000
White Blood Cells (WBC) ([1]; Day 3 of HEPES treatment): 53,000
Hemoglobin (Hgb) ([1]; Day 7 of HEPES treatment): 11.6 g/dL
Blasts ([1]; Day 7 of HEPES treatment): 5.0%
Platelets ([1]; Day 7 of HEPES treatment): 17,000
White Blood Cells (WBC) ([1]; Day 7 of HEPES treatment): 6,300
premature ventricular contractions (PVC) [2]: 1 every 10 minutes
